From patent publication US10934315B2, “Process for preparing bortezomib, intermediates, and crystalline forms thereof” (PHARMACORE BIOTECH CO., LTD., priority 2018, dated 2021)

Experiment: Stability test of crystalline form D of bortezomib in a sealed state at 0-10° C.
Assay type: physicochemical
Settings: for Purity (%): HPLC purity
Description: The crystalline form of bortezomib prepared in Example 2 was subjected to a stability test in a sealed state at a temperature of 0-10° C. for 3.5 months.

With `CC(C)C[C@H](NC(=O)[C@H](Cc1ccccc1)NC(=O)c1cnccn1)B(O)O` [Form D of Formula V, [(1R)-3-methyl-1-[[(2S)-1-oxo-3-phenyl-2-[(pyrazinylcarbonyl)amino]propyl]amino]butyl] boronic acid] as the molecule, how does the “(S, S) and (R, R) diastereomer (%)” value (1 month) read?
The value was 0.046%.

What about the “(S, S) and (R, R) diastereomer (%)” value (1 week) of the same molecule?
The value was 0.068%.

What about the “(S, S) and (R, R) diastereomer (%)” value (2 month) of the same molecule?
The value was 0.039%.

What about the “(S, S) and (R, R) diastereomer (%)” value (2 week) of the same molecule?
The value was 0.042%.

What about the “(S, S) and (R, R) diastereomer (%)” value (3.5 month) of the same molecule?
Its value is 0.048%.

And the “Stability (HPLC purity and crystalline form)” value (3.5 months)?
The value was “maintained in a stable state without any change in HPLC purity and crystalline form”.

What about the “Purity (%)” value (1 month) of the same molecule?
Its value is 99.80%.

What about the “Purity (%)” value (1 week) of the same molecule?
Its value is 99.61%.

And the “Purity (%)” value (2 month)?
The value was 99.74%.

What about the “Purity (%)” value (2 week) of the same molecule?
Its value is 99.87%.

And the “Purity (%)” value (3.5 month)?
Its value is 99.69%.
